This is an account of results in US3981997A, “Analgesic compositions comprising 1H- or respectively 2H-indazolone-3 (β-morpholino-alkoxy) compounds” (Temmler Werke-Vereinigte Chemische Fabriken, priority 1970, dated 1976).

Read-outs that look alike come from different tables or passages of the source.

In data set [1] the test system is rat. As to the kind of experiment: animal or person. It counts as in vivo. As to the method: According to Table II and with reference to the method described by A. HERZ (Naunyn-Schmiedeberg's Arch. Pharmakol., 242, 414, 1962) with rats by electrical stimulation of the root of the tail by means of continuously increasing the current a threshold of pain was determined which threshold was characterized in that the animals commenced to squeak in synchronism with the stimulation. When maintaining the selected test conditions these threshold values indicated as percent variations against the initial values prior to the treatment remained practically constant over a period of several hours in a test with control animals. Since these values are furthermore also normally distributed it is possible to quantitatively determine analgetic effects by determining the number of animals whose threshold values exceed during a test run the range defined by the mean value plus twice the standard deviation.
To determine the mean effective dosage ED50) determinations of the threshold of pain were made in 30 minute intervals with groups of 12 female rats each, each rat having a body weight from 160 to 360 grams, and these determinations were made prior to and after the treatment with at least 3 doses of the test substances which were administered orally in a 2 % methyl-cellulose-mucic by means of a probe. […] In this manner, not only the intensity but also the duration of the effect were taken into consideration when determining the ED50 since the analgesia must be sustained for at least 90 minutes.

Data set [2] can be described thus: Overall analgetic effect and compatability [sic]. The note with it: in vivo.
Data set [3] concerns mouse. Description: animal or person. The conditions noted are these: for ED50: Mus musculus; for Hot plate: relative therapeutic index (Th.I.) / Writhing Test: relative therapeutic index (Th.I.) / Writhing Test: mean effective dosage (ED50) / Hot plate: mean effective dosage (ED50): mouse; for Writhing Test: mean effective dosage (ED50) / Hot plate: mean effective dosage (ED50): relative to effective substance; for Writhing Test: mean effective dosage (ED50): 30 min; for Hot plate: mean effective dosage (ED50): 60 min. As to the method:
The mice were kept without food during a period of 18 hours prior to the commencement of the tests. The test substances were administered orally in a methyl-cellulose-mucic (slime) by means of a probe. The observation period for the toxicity tests was 7 days. […] The pre-medication periods were 60 minutes in the first test arrangements. […] The percentage of the non-reacting animals was used to compute the ED50. […] Since the reaction times of the control group animals were log-normally distributed an analgetic effect was assumed in the treated animals if the logarithm of the reaction time of an animal was above the mean value range plus twice the standard deviation of the control group animals.
In general terms: In writhing tests, fewer writhes than in controls are read as antinociception.

Data set [4] in a line: Acute oral toxicity in the mouse (LD50, 7-day observation). It counts as in vivo. The conditions noted are these: in vivo, read-out: Mean lethal dosage (LD50).
In data set [5] the test system is rat. It counts as in vivo.
Data set [6] is described as follows: Acute oral toxicity in the rat (LD50). The conditions noted are these: in vivo.
Data set [7] deals with mouse. As to the kind of experiment: Acute oral toxicity in the mouse (LD50, 7-day observation). It counts as in vivo. The conditions noted are these: Table I, relative to effective substance, 10080 min.
Where [8] appears, read: po, Table II, rat, p.o., relative to effective substance, read-out: Mean effective dosage (ED50), analgetic effect on rats.
Where [9] appears, read: po, 0.5 h, read-out: Writhing Test: mean effective dosage (ED50).
[10] abbreviates: po, 1 h, read-out: Hot plate: mean effective dosage (ED50).
The mark [11] stands for this setting: Table I, oral, LD10/ED90, relative to aminophenazone = 1,00.
Setting [12] is: Table I, relative to effective substance.
Setting [13] is: Table IV, rat, oral, read-out: Mean effective dosage (ED50), electrical stimulation of root of the tail (HERZ).
The mark [14] stands for this setting: Table IV, oral, LD10/ED90, relative to aminophenazone = 1.00.

For the compound `Br.c1ccc2c(OCCN3CCOCC3)n[nH]c2c1` [3-(β-morpholino-ethoxy)-1H-indazole-hydrobromide], the “Relative effectivity, relative to aminophenazone = 1.00” value (“Relative effectivity” below) in data set [1] (Table II, rat, p.o.) amounted to 6.84. Also, the ED50 – broadly, the midpoint of the dose-response relation – is 34 mg/kg in data set [1] (setting [8]), 46 mg/kg in data set [3] (setting [9]) and 142 mg/kg in data set [3] (setting [10]). Besides, the “analgetic activity (in words)” value in data set [2] was “Analgetically particularly active”. Further, the “Hot plate: relative therapeutic index (Th.I.)” value in data set [3] (setting [11]) is reported as 3,53. The “Writhing Test: relative therapeutic index (Th.I.)” value in data set [3] (setting [11]) is 1,30. The LD50 (commonly the dose at which mortality reaches 50%) at 168 h in data set [4] (setting [12]) amounted to 615 mg/kg.
On to `c1ccc2c(OCCN3CCOCC3)n[nH]c2c1` [3-(β-morpholino-ethoxy)-1H-indazole], for which, in data set [2], the “analgetic activity (in words)” value is reported as “Analgetically particularly active”.
Still for that read-out and setting: the entry for `Br.C1CCc2c(n[nH]c2OCCN2CCOCC2)C1` [3-(β-morpholino-ethoxy)-4,5,6,7-tetrahydro-2H-indazole-hydrobromide] is “Analgetically particularly active”.
As for `C1CCc2c(n[nH]c2OCCN2CCOCC2)C1` [3-(β-morpholino-ethoxy)-4,5,6,7-tetrahydro-2H-indazole], the ED50 was 143 mg/kg in data set [1] (setting [13]), 94 mg/kg in data set [3] (setting [9]) and 540 mg/kg in data set [3] (setting [10]). The relative therapeutic index in data set [5] (setting [14]) turned out to be 1.62. The compound further registered an LD50 in data set [6] of 1600 mg/kg. In addition, in data set [3] (in vivo, po), the “Hot plate: relative therapeutic index (Th.I.)” value turned out to be 2.67. In data set [3] (in vivo, po), the “Writhing Test: relative therapeutic index (Th.I.)” value came out at 2.07. For the same compound, the 50% lethal dose (LD50) at 168 h in data set [4] (Table III) came out at 1720 mg/kg.
On to `c1ccc2c(OCCCN3CCOCC3)n[nH]c2c1` [3-(γ-morpholino-propoxy)-1H-indazole], for which the “analgetic activity (in words)” value in data set [2] was “Analgetically particularly active”.
As for `CC(=O)Oc1ccccc1C(=O)O` [acetylsalicylate], the “Relative effectivity” value in data set [1] (Table II, rat, p.o.) is listed as 0.67. The results for the ED50 in data set [1] (setting [13]), in data set [3] (setting [9]) and in data set [3] (setting [10]) were 340 mg/kg, 107 mg/kg and 500 mg/kg, respectively. For the same compound, the relative therapeutic index in data set [5] (setting [14]) was found to be 0.28. The compound also yielded an LD50 in data set [6] of 1400 mg/kg. The “Writhing Test: mean effective dosage (ED50)” value (from here on “Writhing Test … (ED50)”) in data set [3] (Table I, oral) amounted to 107 mg/kg body weight. Moreover, in data set [3] (Table I, oral), the “Hot plate: mean effective dosage (ED50)” value is 500 mg/kg body weight. The “Hot plate: relative therapeutic index (Th.I.)” value in data set [3] (setting [11]) is on record as 1,67; in data set [3] (in vivo, po), 1.88. The “Writhing Test: relative therapeutic index (Th.I.)” value in data set [3] (setting [11]) is given as 0,80; in data set [3] (in vivo, po), 0.91. Moreover, the LD50 at 168 h in data set [4] (Table III) turned out to be 835 mg/kg. Besides, the “Mean lethal dosage (LD50)” value in data set [7] is given as 835 mg/kg body weight.
On to `Cc1c(N(C)C)c(=O)n(-c2ccccc2)n1C` [aminophenazone], for which the “Relative effectivity” value in data set [1] (Table II, rat, p.o.) worked out at 1.00. In addition, the values for the ED50 in data set [1] (setting [13]), in data set [3] (setting [9]) and in data set [3] (setting [10]) were 229 mg/kg, 50 mg/kg and 283 mg/kg, respectively. Moreover, the relative therapeutic index in data set [5] (in vivo, po) is 1.00. The compound further showed an LD50 in data set [6] of 1350 mg/kg. Also, the “Writhing Test … (ED50)” value in data set [3] (Table I, oral) amounted to 50 mg/kg body weight. In addition, the “Hot plate: mean effective dosage (ED50)” value in data set [3] (Table I, oral) amounted to 283 mg/kg body weight. For the same compound, the “Hot plate: relative therapeutic index (Th.I.)” value is 1,00 in data set [3] (setting [11]) and 1.00 in data set [3] (in vivo, po). The “Writhing Test: relative therapeutic index (Th.I.)” value in data set [3] (setting [11]) was 1,00; in data set [3] (in vivo, po) it was 1.00. Also, in data set [4] (Table III), the LD50 at 168 h came out at 550 mg/kg. Moreover, the “Mean lethal dosage (LD50)” value in data set [7] is reported as 550 mg/kg body weight.
`COc1ccc2c3c1O[C@H]1[C@@H](O)C=C[C@H]4[C@@H](C2)N(C)CC[C@@]341` [codeine phosphate]: the ED50 in data set [1] (Rattus norvegicus, po, read-out: Mean effective dosage (ED50), analgetic effect on rats) was found to be 22 mg/kg; in data set [3] (setting [9]), 14 mg/kg; in data set [3] (setting [10]) it was 115 mg/kg. Besides, in data set [1] (Table II, rat, p.o.), the “Relative effectivity” value was 10.50. Moreover, the “Hot plate: relative therapeutic index (Th.I.)” value in data set [3] (setting [11]) was 1,49. Further, in data set [3] (setting [11]), the “Writhing Test: relative therapeutic index (Th.I.)” value is listed as 1,92. For the same compound, the LD50 at 168 h in data set [4] (setting [12]) is 265 mg/kg.
Take `CCOc1ccc(NC(C)=O)cc1` [phenacetine]: the “Relative effectivity” value in data set [1] (Table II, rat, p.o.) stood at 1.86. In addition, the ED50 in data set [1] (setting [8]) is 123 mg/kg; in data set [3] (setting [9]), 107 mg/kg; in data set [3] (setting [10]), 530 mg/kg. Further, the “Writhing Test … (ED50)” value in data set [3] (Table I, oral) is given as 107 mg/kg body weight. Besides, the “Hot plate: mean effective dosage (ED50)” value in data set [3] (Table I, oral) was 530 mg/kg body weight. Besides, the “Hot plate: relative therapeutic index (Th.I.)” value in data set [3] (setting [11]) is recorded as 1,71; in data set [3] (in vivo, po), 1.93. The “Writhing Test: relative therapeutic index (Th.I.)” value was 0,66 in data set [3] (setting [11]) and 0.74 in data set [3] (in vivo, po). Besides, the LD50 at 168 h in data set [4] (Table III) was 1250 mg/kg. Moreover, the “Mean lethal dosage (LD50)” value in data set [7] is on record as 1250 mg/kg body weight.
